According to publication PMC8053989 (Proceedings of the National Academy of Sciences of the …, 2021):
Like-named read-outs stand apart in the source and are kept apart here.

Key:
[1] = system: SARS-CoV-2 replicon; assay: microbe, parasite or virus in culture; assay type: cell-based; conditions: Calu-1 cells, compound alone
[2] = system: SARS-CoV-2 replicon; assay: microbe, parasite or virus in culture; assay type: cell-based; conditions: Huh-7.5 cells
[3] = system: SARS-CoV-2 replicon; assay: microbe, parasite or virus in culture; assay type: cell-based
[4] = system: SARS-CoV-2 replicon; assay: microbe, parasite or virus in culture; assay type: cell-based; conditions: for effect of p-gp inhibitors on potency: in the presence of CP-100356 or elacridar
[5] = system: SARS-CoV-2 replicon; assay: microbe, parasite or virus in culture; assay type: cell-based; conditions: A549 cells, compound alone
[6] = system: SARS-CoV-2 replicon; assay type: cell-based; conditions: concentrations up to 2 µM
[7] = system: 293T cells; assay: Cytotoxicity assay (CellTiter-Glo) in replicon-transfected cells; conditions: range of concentrations tested
[8] = system: wild-type (wt) SARS-CoV-2; design: method as in doi:10.1101/2020.08.28.272880; conditions: ACE2 stably transfected A549 cells; read-out: EC50 against wild-type SARS-CoV-2 infection; cited from earlier work
[9] = Severe acute respiratory syndrome coronavirus 2
[10] = Severe acute respiratory syndrome coronavirus 2, Huh7.5
[11] = Severe acute respiratory syndrome coronavirus 2, HEK-293T, 30 h, read-out: EC50
[12] = Severe acute respiratory syndrome coronavirus 2, Vero cells, compound alone

Cc1cccc(/C=N/Nc2cc(N3CCOCC3)nc(OCCc3ccccn3)n2)c1 [Apilimod]
EC50 [1, 9]: > 42 µM
EC50 [2, 10]: > 42 µM

CN(C)C(=O)COC(=O)Cc1ccc(OC(=O)c2ccc(NC(=N)N)cc2)cc1 [Camostat]
EC50 [3, 11]: > 42 µM
EC50 [1, 9]: > 42 µM
EC50 [4, 12]: > 42 µM
EC50 [5, 9]: > 42 µM

COc1cc2c(cc1OC)CN(CCc1ccc(NC(=O)c3cccc4c(=O)c5cccc(OC)c5[nH]c34)cc1)CC2 [Elacridar]
EC50 [1, 9]: > 8.4 µM
antiviral activity when tested alone [6]: No antiviral activities were observed
EC50 [4, 12]: > 4.67 µM
EC50 [5, 9]: > 4.67 µM

CC(C)C[C@H](NC(=O)OCc1ccccc1)C(=O)N[C@H](C=O)C[C@@H]1CCNC1=O [GC373]
EC50 ([3]; read-out: EC50): 0.0203 ± 0.0053 µM
EC50 [1]: 0.0301 ± 0.0058 µM
EC50 ([4]; Vero cells, compound alone): 0.309 ± 0.043 µM
effect of p-gp inhibitors on potency ([4]; Vero cells): slight increase of the activities
EC50 [5]: 0.539 ± 0.069 µM

CC(C)C[C@H](NC(=O)OCc1ccccc1)C(=O)N[C@@H](CC1CCNC1=O)C(O)S(=O)(=O)O (stereo partly drawn) [GC376]
EC50 ([3]; read-out: EC50): 0.0208 ± 0.0054 µM
EC50 ([3]; read-out: potency (EC50) in inhibiting SARS-CoV-2 replicon replication, percent GFP signal): 0.022 µM
EC50 ([3]; read-out: potency (EC50) in inhibiting SARS-CoV-2 replicon replication, percent luciferase activity): 0.0292 µM
EC50 [1]: 0.0198 ± 0.002 µM
EC50 ([4]; Vero cells, compound alone): 0.237 ± 0.074 µM
EC50 [5]: 0.57 ± 0.182 µM
EC50 [2]: 0.0194 ± 0.0049 µM

CC(C)C[C@H](NC(=O)OCc1ccccc1)C(=O)N[C@@H](C[C@@H]1CCNC1=O)C(O)S(=O)(=O)[O-].[Na+] (stereo partly drawn) [GC376]
effect of p-gp inhibitors on potency ([4]; Vero cells): slight increase of the activities
cytotoxicity [7]: No cytotoxicity was detected

CCC(CC)COC(=O)[C@H](C)N[P@](=O)(OC[C@H]1O[C@@](C#N)(c2ccc3c(N)ncnn23)[C@H](O)[C@@H]1O)Oc1ccccc1 [GS-5734]
EC50 [3, 11]: 0.0156 ± 0.0051 µM
EC50 [1, 9]: 0.0315 ± 0.023 µM
EC50 [4, 12]: 2.24 µM
EC50 [5, 9]: 0.184 µM
EC50 [8]: 0.442 µM
EC50 [2, 10]: 0.0189 µM

N#C[C@@]1(c2ccc3c(N)ncnn23)O[C@H](CO)[C@@H](O)[C@H]1O [GS-441524]
EC50 [3, 11]: 0.603 ± 0.131 µM
EC50 ([3]; Severe acute respiratory syndrome coronavirus 2, HEK-293T, 30 h, read-out: potency (EC50) in inhibiting SARS-CoV-2 replicon replication, percent GFP signal): 0.645 µM
EC50 ([3]; Severe acute respiratory syndrome coronavirus 2, HEK-293T, 30 h, read-out: potency (EC50) in inhibiting SARS-CoV-2 replicon replication, percent luciferase activity): 0.503 µM
EC50 [1, 9]: 1.33 µM
EC50 [4, 12]: 0.302 ± 0.02 µM
EC50 [5, 9]: 1.47 µM
EC50 [2, 10]: 1.03 µM
cytotoxicity [7]: No cytotoxicity was detected

CC(C)(C)NC(=O)N[C@H](C(=O)N1C[C@H]2[C@@H]([C@H]1C(=O)NC(CC1CCC1)C(=O)C(N)=O)C2(C)C)C(C)(C)C (stereo partly drawn) [MK-3034]
EC50 [3, 11]: 3.55 µM
EC50 [1, 9]: 4.79 µM
EC50 [4, 12]: 16.6 µM
effect of p-gp inhibitors on potency ([4]; Vero cells): slight increase of the activities
EC50 [5, 9]: 19.9 µM

N=C(N)c1ccc2cc(OC(=O)c3ccc(N=C(N)N)cc3)ccc2c1 [Nafamostat]
EC50 [3, 11]: > 42 µM
EC50 [1, 9]: > 42 µM
EC50 ([4]; Severe acute respiratory syndrome coronavirus 2, Vero C1008, Vero E6 cells (so in the source)): > 42 µM
EC50 [5, 9]: > 42 µM

COc1cccc2[nH]c(C(=O)N[C@@H](CC(C)C)C(=O)N[C@@H](C[C@@H]3CCNC3=O)C(=O)CO)cc12 [PF-00835231]
EC50 ([3]; read-out: EC50): 0.0752 ± 0.0191 µM
EC50 [1]: 0.0247 ± 0.0038 µM
EC50 ([4]; Vero cells, compound alone): 2.19 µM
effect of p-gp inhibitors on potency ([4]; Vero cells): dramatically increased the potency
EC50 [5]: 0.0763 ± 0.0162 µM
EC50 [2]: 0.175 ± 0.056 µM

CC(C)C[C@H](NC(=O)c1cc2ccccc2o1)C(=O)N[C@H]1CC[C@@H](C)N(S(=O)(=O)c2ccccn2)CC1=O [Relacatib]
EC50 [3, 11]: > 42 µM
EC50 [1, 9]: > 42 µM
EC50 [4, 12]: > 42 µM
EC50 [5, 9]: > 42 µM
